Series [1] has as its target T1, VEGFR-2 (Homo sapiens, UniProt P35968). Nature of the series: VEGFR-2 Western blot in MCF7. It is filed as cell-based.
Series [2] relates to RPE1 (normal human immortalized retinal pigment epithelial cell line). The series is described as follows: MTT assay against normal RPE1 cells. The class given is cell-based. To be noted: RPE-1, read-out: IC50 ± SE, RPE1.
In the next series the target is T2, COX-1 (Ovis aries, UniProt P05979).
T2 sequence (P05979 25-600): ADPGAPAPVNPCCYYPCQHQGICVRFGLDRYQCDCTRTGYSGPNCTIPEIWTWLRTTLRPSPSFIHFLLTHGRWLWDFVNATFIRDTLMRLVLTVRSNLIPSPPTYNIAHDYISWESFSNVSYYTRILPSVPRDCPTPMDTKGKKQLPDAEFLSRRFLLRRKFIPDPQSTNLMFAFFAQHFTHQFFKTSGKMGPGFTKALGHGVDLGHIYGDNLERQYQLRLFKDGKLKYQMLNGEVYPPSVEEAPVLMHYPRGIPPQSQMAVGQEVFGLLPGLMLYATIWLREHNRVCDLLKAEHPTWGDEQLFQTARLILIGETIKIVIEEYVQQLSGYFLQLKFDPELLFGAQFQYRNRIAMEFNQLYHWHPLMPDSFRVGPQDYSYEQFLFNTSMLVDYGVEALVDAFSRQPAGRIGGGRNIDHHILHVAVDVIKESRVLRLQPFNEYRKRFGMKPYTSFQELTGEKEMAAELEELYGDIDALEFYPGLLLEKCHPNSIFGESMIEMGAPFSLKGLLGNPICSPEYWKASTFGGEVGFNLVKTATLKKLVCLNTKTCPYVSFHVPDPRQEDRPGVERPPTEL
The series is described as follows: COX-1 inhibitor screening kit. It is filed as biochemical.

In another series the target is T3, COX-2 (Homo sapiens, UniProt P35354).
T3 sequence (P35354 18-604): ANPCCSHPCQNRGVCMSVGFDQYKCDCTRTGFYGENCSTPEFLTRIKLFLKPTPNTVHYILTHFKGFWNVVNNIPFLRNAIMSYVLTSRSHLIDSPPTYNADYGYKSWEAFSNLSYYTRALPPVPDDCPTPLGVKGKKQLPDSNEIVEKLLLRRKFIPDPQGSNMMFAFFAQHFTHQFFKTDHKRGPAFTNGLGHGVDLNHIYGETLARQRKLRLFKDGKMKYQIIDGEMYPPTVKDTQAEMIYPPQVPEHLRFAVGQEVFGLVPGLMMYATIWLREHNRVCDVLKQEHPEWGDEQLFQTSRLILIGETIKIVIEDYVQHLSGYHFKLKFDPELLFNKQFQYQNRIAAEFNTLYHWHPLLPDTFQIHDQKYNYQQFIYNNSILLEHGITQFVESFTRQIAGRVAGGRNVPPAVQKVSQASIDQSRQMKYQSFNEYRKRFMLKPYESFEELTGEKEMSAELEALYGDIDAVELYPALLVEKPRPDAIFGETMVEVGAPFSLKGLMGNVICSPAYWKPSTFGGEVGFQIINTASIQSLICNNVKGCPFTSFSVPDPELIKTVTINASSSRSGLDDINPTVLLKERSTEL
Nature of the series: COX-2 inhibitor screening kit. The class given is biochemical.

In series [3] the test system is SARS-CoV-2 (hCoV-19/Egypt/NRC-03/2020). The following applies: SARS-CoV-2 / VERO-E6.
For series [4], the target named is T4, EGFR (Homo sapiens, UniProt P00533). The series is described as follows: EGFR Western blot in MCF7. The class given is cell-based.
For series [5], the system named is MCF7 (breast) cancer cell line. The series is described as follows: MTT antiproliferative assay, MCF7. The class given is cell-based.
In series [6] the test system is HCT116 (colon cancer cell line). The series is described as follows: Annexin V-FITC apoptosis/necrosis study. The class given is cell-based. The following applies: at MTT-IC50 of the agent.
Series [7] has as its system HCT116 (colon) cancer cell line. The series is described as follows: MTT antiproliferative assay, HCT116. The class given is cell-based.
For series [8], the system named is HCT116 (colon cancer cell line). Nature of the series: PI-flow cytometry cell cycle analysis. The class given is cell-based.
Series [9] deals with T1, VEGFR-2. Nature of the series: VEGFR-2 Western blot in HCT116. It is filed as cell-based.
Series [10] concerns the target T4, EGFR. Nature of the series: EGFR Western blot in HCT116. It is filed as cell-based.
In series [11] the test system is A431 (squamous skin) cancer cell line. The series is described as follows: MTT antiproliferative assay, A431. It is filed as cell-based.
The subject of series [12] is MCF7 (breast) cancer cell line. To be noted: read-out: IC50 ± SE, MCF7; cited from earlier work.
Series [13] deals with HCT116 (colon) cancer cell line. To be noted: read-out: IC50 ± SE, HCT116; cited from earlier work.

We go through 2 molecules from publication PMC8566089 (Bioorganic Chemistry, 2021).

Read-outs that look alike come from different tables or passages of the source.

T1 sequence (P35968 20-1356): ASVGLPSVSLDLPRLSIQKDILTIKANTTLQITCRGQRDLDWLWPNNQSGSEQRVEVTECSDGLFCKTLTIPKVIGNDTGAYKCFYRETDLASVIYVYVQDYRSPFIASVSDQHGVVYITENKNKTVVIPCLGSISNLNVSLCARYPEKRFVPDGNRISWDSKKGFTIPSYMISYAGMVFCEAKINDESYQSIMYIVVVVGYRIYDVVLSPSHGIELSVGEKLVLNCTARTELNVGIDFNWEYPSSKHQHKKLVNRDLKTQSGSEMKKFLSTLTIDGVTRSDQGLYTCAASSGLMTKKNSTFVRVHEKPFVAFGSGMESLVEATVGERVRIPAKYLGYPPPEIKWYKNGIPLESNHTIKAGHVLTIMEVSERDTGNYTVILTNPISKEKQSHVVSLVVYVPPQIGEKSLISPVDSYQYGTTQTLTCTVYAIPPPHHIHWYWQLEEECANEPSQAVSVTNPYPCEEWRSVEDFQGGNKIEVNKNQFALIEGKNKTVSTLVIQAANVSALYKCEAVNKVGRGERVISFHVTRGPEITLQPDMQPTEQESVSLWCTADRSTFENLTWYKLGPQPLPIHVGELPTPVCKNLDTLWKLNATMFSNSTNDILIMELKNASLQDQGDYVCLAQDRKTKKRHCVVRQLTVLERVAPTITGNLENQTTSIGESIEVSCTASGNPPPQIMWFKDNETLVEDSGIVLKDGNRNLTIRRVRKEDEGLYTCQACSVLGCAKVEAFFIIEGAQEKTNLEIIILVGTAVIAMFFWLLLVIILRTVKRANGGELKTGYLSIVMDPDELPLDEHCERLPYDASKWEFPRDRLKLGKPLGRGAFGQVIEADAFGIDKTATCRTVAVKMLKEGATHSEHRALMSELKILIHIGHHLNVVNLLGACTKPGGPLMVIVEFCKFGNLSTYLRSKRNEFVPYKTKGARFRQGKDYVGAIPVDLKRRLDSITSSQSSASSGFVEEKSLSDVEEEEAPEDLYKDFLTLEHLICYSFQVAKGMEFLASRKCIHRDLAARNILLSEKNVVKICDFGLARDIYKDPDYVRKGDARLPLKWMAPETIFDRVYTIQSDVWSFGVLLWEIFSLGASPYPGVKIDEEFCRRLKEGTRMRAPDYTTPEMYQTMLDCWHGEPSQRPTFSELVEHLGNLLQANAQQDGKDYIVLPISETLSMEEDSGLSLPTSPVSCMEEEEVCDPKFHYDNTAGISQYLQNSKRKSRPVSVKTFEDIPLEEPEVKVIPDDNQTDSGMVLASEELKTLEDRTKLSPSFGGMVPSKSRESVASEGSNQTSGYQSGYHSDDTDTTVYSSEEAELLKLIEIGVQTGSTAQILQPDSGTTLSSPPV
T4 sequence (P00533 25-1210): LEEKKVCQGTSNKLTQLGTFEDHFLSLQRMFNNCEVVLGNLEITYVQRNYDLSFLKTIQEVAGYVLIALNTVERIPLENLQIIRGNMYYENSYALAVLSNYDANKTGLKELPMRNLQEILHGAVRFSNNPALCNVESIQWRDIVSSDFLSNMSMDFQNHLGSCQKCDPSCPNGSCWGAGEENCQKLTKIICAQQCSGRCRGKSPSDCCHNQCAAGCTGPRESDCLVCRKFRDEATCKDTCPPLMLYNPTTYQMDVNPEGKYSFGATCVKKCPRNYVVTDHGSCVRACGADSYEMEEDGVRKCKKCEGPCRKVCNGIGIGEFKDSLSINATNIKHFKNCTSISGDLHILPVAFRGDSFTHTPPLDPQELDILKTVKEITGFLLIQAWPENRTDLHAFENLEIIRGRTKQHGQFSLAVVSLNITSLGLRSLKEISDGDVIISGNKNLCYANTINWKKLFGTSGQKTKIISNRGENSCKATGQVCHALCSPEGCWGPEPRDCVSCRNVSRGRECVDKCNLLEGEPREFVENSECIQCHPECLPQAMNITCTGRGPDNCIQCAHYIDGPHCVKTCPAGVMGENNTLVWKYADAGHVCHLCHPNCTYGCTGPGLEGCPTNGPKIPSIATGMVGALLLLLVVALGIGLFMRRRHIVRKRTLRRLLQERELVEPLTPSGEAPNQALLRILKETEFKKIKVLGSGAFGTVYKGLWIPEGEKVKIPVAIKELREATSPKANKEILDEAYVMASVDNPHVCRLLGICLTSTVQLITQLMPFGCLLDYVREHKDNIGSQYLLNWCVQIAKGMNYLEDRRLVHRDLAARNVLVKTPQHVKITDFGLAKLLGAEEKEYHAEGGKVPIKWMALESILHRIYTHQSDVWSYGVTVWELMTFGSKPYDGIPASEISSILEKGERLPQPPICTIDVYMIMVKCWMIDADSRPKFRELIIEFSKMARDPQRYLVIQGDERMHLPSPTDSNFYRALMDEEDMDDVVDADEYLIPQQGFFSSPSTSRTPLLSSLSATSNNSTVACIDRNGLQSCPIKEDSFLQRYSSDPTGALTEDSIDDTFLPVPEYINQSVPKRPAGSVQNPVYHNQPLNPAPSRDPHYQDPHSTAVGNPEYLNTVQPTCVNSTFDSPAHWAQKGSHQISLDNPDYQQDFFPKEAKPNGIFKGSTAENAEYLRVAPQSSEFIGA

As to `COc1cc(/C=C2\CN(C(=O)c3cc(Cl)ccc3OC(C)=O)C/C(=C\c3cc(OC)c(OC)c(OC)c3)C2=O)cc(OC)c1OC` [Compound 5o, 4-Chloro-2-(4-oxo-3,5-bis((E)-3,4,5-trimethoxybenzylidene)piperidine-1-carbonyl)phenyl acetate], the “VEGFR2 MCF7 % Inhibition” value at VEGFR-2 [1] (Western blot at MTT-IC50) came to 63.0%. Also, the “VEGFR2 MCF7 RQ (relative quantification)” value at VEGFR-2 [1] (Western blot at MTT-IC50, control RQ 3.725) was determined as 1.38. In addition, the IC50 in [2] was 7020 ± 450 nM. Also, the IC50 on COX-1 was found to be 193 nM. In addition, on COX-2, 1600 nM corresponded to half-maximal inhibition (IC50) and the “SI = IC50(COX-1)/IC50(COX-2)” value came out at 0.121. For the same molecule, the “SI = CC50/IC50” value in series [3] was 34.0. At EGFR [4] (Western blot at MTT-IC50), the “EGFR MCF7 % Inhibition” value was found to be 69.2%. The “EGFR MCF7 RQ (relative quantification)” value at EGFR [4] (Western blot at MTT-IC50, control RQ 4.226) is 1.3. Besides, the IC50 in series [5] (Homo sapiens, MCF7, 72 h, read-out: IC50 ± SE, MCF7) amounted to 2650 ± 220 nM. In addition, the “SI (selectivity index), MCF7” value in series [5] (IC50 of RPE1 relative to that of MCF7) stood at 2.65. For the same molecule, in [6], the “Apoptosis (%) Early” value amounted to 1.72%, the “Apoptosis (%) Total” value stood at 35.75% and the “Necrosis (%)” value turned out to be 9.44%. For the same molecule, the IC50 in [7] (Homo sapiens, HCT-116, 72 h, read-out: IC50 ± SE, HCT116) is 750 ± 60 nM. Also, the “SI (selectivity index), HCT116” value in series [7] (IC50 of RPE1 relative to that of HCT116) was determined as 9.36. Also, the “phase of cell cycle arrest” value in [8] (PI-flow cytometry) was “S-phase”. In series [8] (at MTT-IC50 of the agent), the “DNA content (%) G0-G1” value was 42.75%, the “DNA content (%) G2/M” value was 4.14%, the “DNA content (%) Pre-G1” value is on record as 35.75% and the “DNA content (%) S” value is listed as 53.11%. Also, the “VEGFR2 HCT116 % Inhibition” value on VEGFR-2 [9] (Western blot at MTT-IC50) is 69.6%. The “VEGFR2 HCT116 RQ (relative quantification)” value on VEGFR-2 [9] (Western blot at MTT-IC50, control RQ 3.817) is given as 1.16. The “EGFR HCT116 % Inhibition” value at EGFR [10] (Western blot at MTT-IC50) came out at 68.2%. Also, the “EGFR HCT116 RQ (relative quantification)” value at EGFR [10] (Western blot at MTT-IC50, control RQ 4.0382) is 1.283. Besides, in [11] (Homo sapiens, A-431, 72 h, read-out: IC50 ± SE, A431), the IC50 was 431 ± 30 nM. In addition, the “SI (selectivity index), A431” value in [11] (IC50 of RPE1 relative to that of A431) amounted to 16.3.
With `COc1cc(/C=C/C(=O)CC(=O)/C=C/c2ccc(O)c(OC)c2)ccc1O` [Cur, curcumin], the values for the IC50 in series [12] and in series [13] were 16000 ± 2040 nM and 38200 ± 2360 nM, respectively.
